Calls of active or inactive are those of the source.
How the values were obtained:
[1] = molecular target: T1, Tyrosine-protein phosphatase non-receptor type 7 (Homo sapiens, UniProt P35236); type: functional
T1 sequence (P35236 whole entry): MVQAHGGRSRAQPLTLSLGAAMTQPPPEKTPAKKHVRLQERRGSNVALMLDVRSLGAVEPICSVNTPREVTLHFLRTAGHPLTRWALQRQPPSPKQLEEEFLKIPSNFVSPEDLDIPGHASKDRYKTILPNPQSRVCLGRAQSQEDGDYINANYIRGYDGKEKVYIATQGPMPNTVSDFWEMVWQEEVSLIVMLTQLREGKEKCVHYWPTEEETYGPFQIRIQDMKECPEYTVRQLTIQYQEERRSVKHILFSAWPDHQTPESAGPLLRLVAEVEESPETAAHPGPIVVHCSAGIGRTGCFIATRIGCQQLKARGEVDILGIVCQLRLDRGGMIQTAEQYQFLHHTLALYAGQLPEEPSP

[2] = molecular target: T2, Dual specificity protein phosphatase 6 (Rattus norvegicus, UniProt Q64346); type: functional
T2 sequence (Q64346 whole entry): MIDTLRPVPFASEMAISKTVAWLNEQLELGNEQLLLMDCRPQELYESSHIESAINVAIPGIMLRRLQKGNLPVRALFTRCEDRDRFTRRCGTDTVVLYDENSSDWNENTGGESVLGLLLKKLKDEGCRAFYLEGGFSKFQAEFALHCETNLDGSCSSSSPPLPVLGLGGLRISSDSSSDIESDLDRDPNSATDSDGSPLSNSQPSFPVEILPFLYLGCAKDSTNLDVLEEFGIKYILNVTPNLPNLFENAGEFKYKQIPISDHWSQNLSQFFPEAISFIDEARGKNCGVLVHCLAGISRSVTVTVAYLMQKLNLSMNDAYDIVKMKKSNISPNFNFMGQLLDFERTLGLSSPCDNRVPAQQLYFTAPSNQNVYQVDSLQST

[3] = molecular target: T2, Dual specificity protein phosphatase 6
[4] = molecular target: Glyceraldehyde-3-phosphate dehydrogenase (Homo sapiens, UniProt P04406)
[5] = Luminescence Cell-Based Dose Confirmation HTS to Identify Inhibitors of Platelet Dense Granule Release. [Related pubchem assays: 1663 (Primary HTS), 1678 (Summary of Project)]; type: functional
[6] = molecular target: Dual specificity tyrosine-phosphorylation-regulated kinase 1A (Rattus norvegicus, UniProt Q63470); type: biochemical, Homo sapiens
[7] = molecular target: T3, Luciferin 4-monooxygenase (Photinus pyralis, UniProt P08659); experiment: Counter Screen for Luciferase-based Assay Positives. [Related pubchem assays: 620, 618, 411 ]
[8] = molecular target: T3, Luciferin 4-monooxygenase; experiment: firefly luciferase enzyme inhibitors, dose response, biochemical, luminescence (AID 1891)
[9] = luciferase reporter signal reduction – luminescence, H4-C neuroglioblastoma cells, dose response (AID 2458); type: functional, cell-based;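 note: H4 neuroglioblastoma cells stably carrying a luciferase reporter gene fusion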
[10] = inhibitors of SNCA 5'UTR-driven reporter translation, confirmation, H4 neuroglioma cells, luminescence (AID 1988); type: functional, cell-based
[11] = inhibitors of firefly luciferase expression or activity, dose response, H4 neuroglioma cells, luminescence (AID 1990); type: functional, cell-based
[12] = test system: HT-1080; experiment: cytotoxicity in HT1080 fibrosarcoma cells, cell-based, fluorescence readout (AID 620); type: functional; conditions: Homo sapiens
[13] = molecular target: Mitogen-activated protein kinase 10 (Homo sapiens, UniProt P53779); experiment: Dose response biochemical screening assay for inhibitors of c-Jun N-Terminal Kinase 3 (JNK3). [Related pubchem assays: 746 ]
[14] = inhibitors of SNCA 5'UTR-driven translation, confirmation, luminescence, H4 neuroglioblastoma cells, dose confirmation (AID 2454); type: functional, cell-based;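 note: H4 neuroglioblastoma cells carrying an alpha-synuclein 5'UTR luciferase reporter; potency for inhibition of the luciferase signal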
[15] = cytotoxicity in HEK-293T cells, dose response, cytotoxicity control for TCR NF-kB inhibitor project, luminescence, T-cell screen hits (AID 489026); type: functional, cell-based;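 note: cells exposed to compound about 14 hours before the viability readout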
[16] = cells; type: functional, cell-based
[17] = Luminescence-based counterscreen assay for KLF5 inhibitors: dose response cell-based high throughput screening assay to identify cytotoxic compounds using the IEC-6 intestinal epithelial cell line. [Related pubchem assays: 1700 (Primary screen.), 1834 (Confirmation screen.), 1858 (Summary AID.), 1905 (Counterscreen.)]; type: functional
[18] = Luminescence Cell-Based Dose Response HTS to Identify Inhibitors of 5'UTR Stem-Loop Driven Prion Protein mRNA Translation in H4 Neuroglioblastoma Cells. [Related pubchem assays: 1827 (Project Summary), 1813 (Primary HTS)]; type: functional
[19] = Counterscreen for IDE inhibitors: Luminescence-based cell-based high throughput dose response assay to identify compounds that are cytotoxic to HEK cells. [Related pubchem assays: 434962 (Primary screen (IDE inhibitors in singlicate)), 449730 (Counterscreen (Cytotoxicity in triplicate)), 435028 (Confirmation (IDE inhibitors in triplicate)) …; type: functional; conditions: HEK293
[20] = enhancers of respiration in Yfh1-depleted yeast, dose response, Friedreich's ataxia, plus single-dose screen (AID 1465); type: functional;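 note: yeast depleted of Yfh1p frataxin homolog grown on glycerol needing respiration; WST-1 tetrazolium dye reduction as measure of cellular dehydrogenase metabolic activity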
[21] = molecular target: Troponin, cardiac muscle (Homo sapiens, UniProt P19429+P45379+P63316); experiment: Fluorescence-based biochemical high throughput dose response assay for activators of the calcium sensitivity of cardiac Regulated Thin Filaments (RTF). [Related pubchem assays (depositor defined):AID493008, AID493018, AID504382, AID504383]; type: protein-complex assay
[22] = molecular target: T4, Insulin-degrading enzyme (Homo sapiens, UniProt P14735); experiment: Dose Response: Fluorescence polarization-based cell-based high throughput dose response assay for inhibitors of insulin-degrading enzyme (IDE). [Related pubchem assays: 434962 (Primary screen (IDE inhibitors in singlicate)), 449730 (Counterscreen (Cytotoxicity in triplicate)), 435028 (Confirmation (IDE inhibitors in triplicate)), 434984 (Summary …; type: functional
T4 sequence (P14735 whole entry): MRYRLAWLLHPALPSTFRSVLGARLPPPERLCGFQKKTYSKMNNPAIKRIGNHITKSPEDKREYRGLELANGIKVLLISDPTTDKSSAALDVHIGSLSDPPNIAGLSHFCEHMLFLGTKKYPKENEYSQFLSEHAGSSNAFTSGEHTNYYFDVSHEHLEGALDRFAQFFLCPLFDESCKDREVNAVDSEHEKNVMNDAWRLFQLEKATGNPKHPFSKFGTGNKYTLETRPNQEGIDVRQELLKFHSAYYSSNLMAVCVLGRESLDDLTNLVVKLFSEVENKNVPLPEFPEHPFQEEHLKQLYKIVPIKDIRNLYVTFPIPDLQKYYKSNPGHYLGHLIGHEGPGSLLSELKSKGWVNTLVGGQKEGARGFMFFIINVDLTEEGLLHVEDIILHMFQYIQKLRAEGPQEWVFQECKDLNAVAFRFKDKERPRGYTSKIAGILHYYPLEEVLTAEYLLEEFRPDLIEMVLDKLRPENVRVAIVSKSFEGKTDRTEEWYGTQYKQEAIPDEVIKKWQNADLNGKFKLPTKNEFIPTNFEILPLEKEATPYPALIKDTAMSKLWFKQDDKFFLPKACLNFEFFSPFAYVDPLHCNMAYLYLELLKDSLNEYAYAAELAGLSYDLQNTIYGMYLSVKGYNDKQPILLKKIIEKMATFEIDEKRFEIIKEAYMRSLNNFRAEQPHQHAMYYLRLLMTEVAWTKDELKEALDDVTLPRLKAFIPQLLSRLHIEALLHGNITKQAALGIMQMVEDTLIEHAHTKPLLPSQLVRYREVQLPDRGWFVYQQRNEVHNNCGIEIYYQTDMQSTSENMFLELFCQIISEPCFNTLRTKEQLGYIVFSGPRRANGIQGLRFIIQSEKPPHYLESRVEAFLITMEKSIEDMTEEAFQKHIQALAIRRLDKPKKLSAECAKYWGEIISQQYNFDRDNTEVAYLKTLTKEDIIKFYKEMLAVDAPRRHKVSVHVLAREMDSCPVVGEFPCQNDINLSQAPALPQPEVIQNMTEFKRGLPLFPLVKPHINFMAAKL

[23] = test system: Streptococcus; experiment: Luminescence Microorganism-Based Dose Response Follow up to Identify Compounds Cytotoxic to Streptococcus. [Related pubchem assays: 1677 (Project Summary), 1915, 1914, 1902 (Retest at Dose), 1900 (Counter Screen), 1662 (Primary HTS)]; type: functional, organism-based
[24] = molecular target: Lysosomal acid glucosylceramidase (Homo sapiens, UniProt P04062); experiment: Dose response cell-based high throughput screening assay to identify enhancers of beta-glucosidase activity. [Related pubchem assays: 784 ]; type: functional
[25] = test system: HEK293; experiment: Cytotoxicity assay in HEK293 cells. [Related pubchem assays (depositor defined):AID1266, AID1269, AID1270, AID1271, AID1280, AID1281, AID1282, AID1283, AID1287, AID1289, AID1290, AID1291, AID1292, AID1293, AID1294, AID1295, AID1299, AID1302, AID1364, AID1365, AID1366, AID1367, AID1369, AID1370, AID1371, AID1372, AID1373, AID1374, AID1375, AID1384 …; type: functional, cell-based; conditions: Homo sapiens
[26] = test system: HEK293; experiment: TNF Induced NF-kB Luciferase in 293-NF-kB-Luc Stable Cells. [Related pubchem assays: 1266, 1299, 1269, 1373, 1292, 1290, 1302, 1371, 1283, 1270, 1295, 1271, 1375, 1294, 1374, 1281, 1293, 1291, 1289, 1280, 465, 1368, 1364, 1282, 1372, 1365, 1369, 1370, 1367, 1366 ]; type: functional, cell-based; conditions: Homo sapiens
[27] = molecular target: T3, Luciferin 4-monooxygenase; experiment: In vitro luciferase assay using purified luciferase. [Related pubchem assays: 1299, 1270, 1295, 1375, 1287, 1281, 1293, 1291, 1289, 1280, 465, 1364, 1282, 1372, 1365, 1370, 1367, 1366, 1266, 1373, 1292, 1290, 1302, 1371, 1283, 1271, 1294, 1374, 1368, 1369 ]
[28] = test system: HEK293; experiment: PMA/Ionomycin-induced IL-8 production in HEK293- NF-kB-Luc stable cells. [Related pubchem assays: 1299, 1295, 1375, 1287, 1281, 1293, 1291, 1289, 1280, 465, 1364, 1282, 1372, 1365, 1367, 1366, 1266, 1269, 1373, 1292, 1290, 1302, 1371, 1283, 1271, 1294, 1374, 1368, 1369 ]; type: functional, cell-based; conditions: Homo sapiens
[29] = test system: HEK293; experiment: PMA/Ionomycin induced NF-kB luciferase assay in 293- NF-kB-Luc stable cells. [Related pubchem assays: 1299, 1270, 1295, 1375, 1287, 1281, 1293, 1291, 1289, 1280, 465, 1364, 1282, 1372, 1365, 1370, 1367, 1366, 1269, 1373, 1292, 1290, 1302, 1371, 1283, 1271, 1294, 1374, 1368, 1369 ]; type: functional, cell-based; conditions: Homo sapiens
[30] = test system: Vero; experiment: Vero E6 cell cytotoxicity, SAR follow-up, cytotoxicity control for West Nile virus antiviral project, synthesized analogs (AID 2244); type: functional; conditions: Chlorocebus sabaeus
[31] = test system: Vero; experiment: cytotoxicity of synthesized analogs in Vero cells, SAR follow-up, cytotoxicity control for West Nile virus antiviral project, cell-based, set II (AID 2402); type: functional; conditions: Chlorocebus sabaeus
[32] = A Cell Based Assay for the Identification of Probe candidate Compounds with Anti- Venezuelan Equine Encephalitis virus. [Related pubchem assays: 2409, 2419, 1621, 2238, 2405, 2024, 2065, 2402, 2414, 1635, 1650, 2244 ]; type: functional
[33] = test system: Vero; experiment: cytotoxicity of synthesized analogs in Vero 76, SAR follow-up, cytotoxicity control for West Nile virus antiviral project, Vero 76 cells (AID 2414); type: functional; conditions: Chlorocebus sabaeus

T3 sequence (P08659 whole entry): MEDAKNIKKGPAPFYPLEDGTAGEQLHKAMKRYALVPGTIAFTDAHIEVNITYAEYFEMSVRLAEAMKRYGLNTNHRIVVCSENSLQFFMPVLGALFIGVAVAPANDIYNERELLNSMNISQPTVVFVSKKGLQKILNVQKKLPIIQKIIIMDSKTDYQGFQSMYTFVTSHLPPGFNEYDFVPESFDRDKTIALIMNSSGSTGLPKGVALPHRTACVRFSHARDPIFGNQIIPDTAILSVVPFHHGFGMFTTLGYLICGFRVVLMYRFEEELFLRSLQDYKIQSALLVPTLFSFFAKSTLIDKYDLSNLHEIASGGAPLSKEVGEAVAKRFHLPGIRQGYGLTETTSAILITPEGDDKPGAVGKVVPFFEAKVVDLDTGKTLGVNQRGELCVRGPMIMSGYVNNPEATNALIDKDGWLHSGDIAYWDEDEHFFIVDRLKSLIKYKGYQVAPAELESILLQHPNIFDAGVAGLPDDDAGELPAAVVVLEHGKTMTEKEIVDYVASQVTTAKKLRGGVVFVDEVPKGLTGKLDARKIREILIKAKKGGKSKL
Sequence of Mitogen-activated protein kinase 10 (P53779 whole entry): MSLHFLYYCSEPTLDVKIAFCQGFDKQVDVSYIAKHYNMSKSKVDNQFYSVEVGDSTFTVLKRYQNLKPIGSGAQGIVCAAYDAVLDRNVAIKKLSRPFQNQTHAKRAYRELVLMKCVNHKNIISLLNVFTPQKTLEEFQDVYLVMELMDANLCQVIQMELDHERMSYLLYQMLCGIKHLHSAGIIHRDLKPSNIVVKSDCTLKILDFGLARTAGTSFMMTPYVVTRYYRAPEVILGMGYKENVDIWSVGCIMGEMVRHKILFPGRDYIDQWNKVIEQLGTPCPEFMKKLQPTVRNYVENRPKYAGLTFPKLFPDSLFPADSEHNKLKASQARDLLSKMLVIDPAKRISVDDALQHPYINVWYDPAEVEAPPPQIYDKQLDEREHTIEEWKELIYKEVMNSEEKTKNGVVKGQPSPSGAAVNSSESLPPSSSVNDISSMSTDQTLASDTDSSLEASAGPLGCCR
Sequence of Glyceraldehyde-3-phosphate dehydrogenase (P04406 whole entry): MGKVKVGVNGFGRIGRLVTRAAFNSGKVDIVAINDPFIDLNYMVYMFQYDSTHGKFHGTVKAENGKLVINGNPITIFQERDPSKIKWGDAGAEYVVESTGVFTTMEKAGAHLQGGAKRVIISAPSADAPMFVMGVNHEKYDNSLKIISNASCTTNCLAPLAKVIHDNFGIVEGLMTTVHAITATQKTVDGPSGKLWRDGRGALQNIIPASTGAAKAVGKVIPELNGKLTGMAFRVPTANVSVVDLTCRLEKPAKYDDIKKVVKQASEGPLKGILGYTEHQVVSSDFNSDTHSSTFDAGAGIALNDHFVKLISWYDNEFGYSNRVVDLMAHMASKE
Sequence of Lysosomal acid glucosylceramidase (P04062 whole entry): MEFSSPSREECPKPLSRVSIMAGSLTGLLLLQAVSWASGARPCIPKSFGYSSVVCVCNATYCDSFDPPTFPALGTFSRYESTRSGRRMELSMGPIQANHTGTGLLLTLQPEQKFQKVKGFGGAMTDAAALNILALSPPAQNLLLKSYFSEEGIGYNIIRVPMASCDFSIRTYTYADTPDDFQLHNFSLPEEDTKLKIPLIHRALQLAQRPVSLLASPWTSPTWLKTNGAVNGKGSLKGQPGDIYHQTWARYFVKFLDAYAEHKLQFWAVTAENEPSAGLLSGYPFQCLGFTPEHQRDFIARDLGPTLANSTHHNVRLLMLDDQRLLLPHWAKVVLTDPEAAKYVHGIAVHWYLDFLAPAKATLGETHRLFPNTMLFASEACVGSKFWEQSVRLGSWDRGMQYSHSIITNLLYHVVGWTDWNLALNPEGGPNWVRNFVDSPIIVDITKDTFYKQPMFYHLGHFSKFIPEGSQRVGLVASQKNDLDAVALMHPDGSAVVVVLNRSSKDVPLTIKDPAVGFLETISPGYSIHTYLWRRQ

O=C(O)C1Nc2c(F)cccc2C2C=CCC12 (stereo not drawn)
IC50 [1]: 5.4 µM (active)
IC50 [2]: 17.2 µM (active)
IC50 [3]: 19.8 µM (active)
IC50 [4]: > 100 µM (not active)

CCN1C=CC(=C2C(=O)c3ccccc3C2=O)C=C1
EC50 [5]: 6.3 µM (active)
AC50 [6]: 13.6 µM (active)
EC50 [7]: 10.1 µM (active)
EC50 [8]: 1.85 µM (active)
EC50 [9]: 0.324 µM (active)
EC50 [10]: < 0.1 µM (active)
EC50 [11]: < 0.1 µM (active)
EC50 [12]: > 50 µM (not active)
IC50 [13]: 43.5 µM (not active)
EC50 [14]: 0.247 µM (active)
IC50 [15]: > 80 µM (inactive)
EC50 [16]: 0.317 µM (active)
IC50 [17]: 15 µM (not active)
EC50 [18]: < 0.1 µM (active)

CCOC(=O)/C(=C/C1=CC(=C/N(C)C)/C(=O)O1)C(C)=O
IC50 [19]: > 55.7 µM (not active)
EC50 [20]: > 100 µM (active)
EC50 [21]: 7.74 µM (active)
IC50 [22]: 22.1 µM (not active)

O=C(CSc1cccs1)N1c2ccccc2Sc2ccccc21
EC50 [23]: > 500 µM (not active)

COc1ccc(CNC(=O)CCCNS(=O)(=O)c2cccc3nonc23)cc1
EC50 [24]: > 50 µM (not active)

O=C(NC1CCCCCC1)c1ccc([N+](=O)[O-])o1
EC50 [25]: > 8 µM (inactive)
EC50 [26]: > 8 µM (not active)
EC50 [27]: > 8 µM (not active)
EC50 [28]: 4.02 µM (not active)
EC50 [29]: 3.29 µM (active)

COc1ccc(-c2csc(N(C(=O)c3ccccc3Cl)C(C)C)n2)cc1
CC50 [30]: 22.4 µM (active)
CC50 [31]: 13.5 µM (active)
IC50 [32]: > 66.6 µM (active)
CC50 [33]: 35.5 µM (active)

Reference: ChEMBL document CHEMBL1201862, “PubChem BioAssay data set” (2004)
